Data as given in paper PMC4133348, “Domain Organization, Catalysis and Regulation of Eukaryotic Cystathionine Beta-Synthases” (PLoS ONE, 2014).

Legend:
yCBS [1] = target: T1, yCBS (Saccharomyces cerevisiae, UniProt P32582); assay: differential scanning calorimetry; type: binding; conditions: 100 µM AdoMet, 20 mM HEPES pH 7.4, 50 µM PLP, 3 °C/min
T1 construct: gene CYS4
T1 sequence (P32582 1-507): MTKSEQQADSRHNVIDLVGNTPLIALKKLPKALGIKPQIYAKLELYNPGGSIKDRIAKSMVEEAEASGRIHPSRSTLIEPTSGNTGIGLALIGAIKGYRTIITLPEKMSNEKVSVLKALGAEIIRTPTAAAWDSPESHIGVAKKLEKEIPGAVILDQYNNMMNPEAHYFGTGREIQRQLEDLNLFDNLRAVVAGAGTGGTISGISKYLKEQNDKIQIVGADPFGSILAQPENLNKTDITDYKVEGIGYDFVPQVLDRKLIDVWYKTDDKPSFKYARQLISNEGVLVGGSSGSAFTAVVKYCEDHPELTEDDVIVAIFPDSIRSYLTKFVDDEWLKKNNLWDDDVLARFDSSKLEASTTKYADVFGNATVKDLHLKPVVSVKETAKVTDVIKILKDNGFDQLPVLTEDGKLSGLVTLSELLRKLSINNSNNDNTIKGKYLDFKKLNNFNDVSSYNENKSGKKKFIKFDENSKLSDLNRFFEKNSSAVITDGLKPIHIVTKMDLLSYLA

yCBS [2] = target: T1, yCBS; assay: isothermal titration calorimetry; type: binding
hCBS [3] = target: T2, hCBS (Homo sapiens, UniProt P35520); assay: […]serine radioisotope assay of canonical reaction (activation); type: biochemical; conditions: 10 mM L-serine, 10 mM L-homocysteine, 0.2 mM PLP, pH 8.6, 37 °C; allosteric activator
T2 construct: gene CBS; full-length, permanent C-terminal 6xHis, E. coli, homotetramer of 63 kDa polypeptides, heme-containing
T2 sequence (P35520 1-551): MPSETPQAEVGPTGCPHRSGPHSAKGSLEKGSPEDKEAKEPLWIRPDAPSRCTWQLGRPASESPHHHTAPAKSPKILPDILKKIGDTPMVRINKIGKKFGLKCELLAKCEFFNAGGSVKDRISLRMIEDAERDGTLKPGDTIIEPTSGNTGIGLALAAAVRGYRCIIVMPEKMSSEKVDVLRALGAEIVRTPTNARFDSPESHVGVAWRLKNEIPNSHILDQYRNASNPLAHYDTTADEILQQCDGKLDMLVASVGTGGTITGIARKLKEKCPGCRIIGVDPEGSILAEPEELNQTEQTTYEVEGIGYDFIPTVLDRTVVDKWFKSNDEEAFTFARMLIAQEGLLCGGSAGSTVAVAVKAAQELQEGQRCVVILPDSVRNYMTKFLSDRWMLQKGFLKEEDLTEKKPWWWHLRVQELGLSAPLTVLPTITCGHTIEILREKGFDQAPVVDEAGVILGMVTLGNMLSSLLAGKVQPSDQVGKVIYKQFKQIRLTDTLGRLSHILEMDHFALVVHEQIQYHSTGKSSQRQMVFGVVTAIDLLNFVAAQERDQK

dCBS = target: T3, dCBS (Drosophila melanogaster, UniProt Q9VRD9); assay: […]serine radioisotope assay of canonical reaction; type: biochemical; conditions: 10 mM L-serine, 10 mM L-homocysteine, 0.2 mM PLP, pH 8.6, 37 °C
T3 construct: gene Cbs; full-length, permanent C-terminal 6xHis (pET28-C-dCBS), E. coli Rosetta2 (DE3), homodimer, heme-containing
T3 sequence (Q9VRD9 1-522): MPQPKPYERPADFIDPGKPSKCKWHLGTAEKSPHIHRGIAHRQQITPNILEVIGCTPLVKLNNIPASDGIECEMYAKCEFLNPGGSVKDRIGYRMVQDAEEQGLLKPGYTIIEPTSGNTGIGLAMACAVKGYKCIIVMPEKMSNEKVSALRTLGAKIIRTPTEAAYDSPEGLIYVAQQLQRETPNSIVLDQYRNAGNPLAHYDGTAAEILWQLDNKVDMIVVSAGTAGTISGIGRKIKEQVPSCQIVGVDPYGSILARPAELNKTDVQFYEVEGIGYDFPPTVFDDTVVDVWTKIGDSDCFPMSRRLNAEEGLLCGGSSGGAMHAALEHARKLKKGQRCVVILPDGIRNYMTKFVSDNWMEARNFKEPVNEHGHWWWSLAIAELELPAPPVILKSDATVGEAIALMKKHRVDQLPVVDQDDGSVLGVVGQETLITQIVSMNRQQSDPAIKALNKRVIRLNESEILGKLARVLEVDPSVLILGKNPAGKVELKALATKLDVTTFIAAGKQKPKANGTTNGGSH

hCBS [4] = target: T2, hCBS; assay: as above; type: biochemical; conditions: 10 mM L-serine, 10 mM L-homocysteine, 0.2 mM PLP, pH 8.6, 37 °C; no AdoMet
[5] = target: T4, human cystathionine beta-synthase, full-length (human), P35520; assay: native gel or EMSA; purified enzymes (100 ng CBS per lane) separated in a 4–15% polyacrylamide gradient gel under native conditions, transferred to PVDF and probed with monoclonal anti-6xHis antibody; oligomeric state of each enzyme; conditions: remark: other sources report otherwise
T4 chain: T2 sequence (P35520 1-551)

[6] = target: the molecule itself; assay: as above

C[S+](CC[C@H](N)C(=O)O)C[C@H]1O[C@@H](n2cnc3c(N)ncnc32)[C@H](O)[C@@H]1O (stereo partly shown) [AdoMet]
dTm (yCBS [1]): ~ 0.2 °C | Kd (yCBS [2]): 5 ± 0.5 µM | fold increase in specific activity at 300 μM (hCBS [3]): ~ 3.2 fold

N[C@@H](CO)C(=O)O [Ser]
[14C]serine radioisotope assay of canonical reaction (dCBS): specific activity compared to hCBS in the canonical condensation of Ser and Hcy | [14C]serine radioisotope assay of canonical reaction (hCBS [4]): specific activity compared to hCBS in the canonical condensation of Ser and Hcy

B1: human cystathionine beta-synthase, full-length, P35520 1-551 (enzyme)
chain: T2 sequence (P35520 1-551)
stoichiometry N [5]: 4

B2: 45 kDa hCBS (hCBS V414*), truncated human cystathionine beta-synthase lacking the regulatory domain (domain or fragment, UniProt P35520 1-413, looked up)
chain: MPSETPQAEVGPTGCPHRSGPHSAKGSLEKGSPEDKEAKEPLWIRPDAPSRCTWQLGRPASESPHHHTAPAKSPKILPDILKKIGDTPMVRINKIGKKFGLKCELLAKCEFFNAGGSVKDRISLRMIEDAERDGTLKPGDTIIEPTSGNTGIGLALAAAVRGYRCIIVMPEKMSSEKVDVLRALGAEIVRTPTNARFDSPESHVGVAWRLKNEIPNSHILDQYRNASNPLAHYDTTADEILQQCDGKLDMLVASVGTGGTITGIARKLKEKCPGCRIIGVDPEGSILAEPEELNQTEQTTYEVEGIGYDFIPTVLDRTVVDKWFKSNDEEAFTFARMLIAQEGLLCGGSAGSTVAVAVKAAQELQEGQRCVVILPDSVRNYMTKFLSDRWMLQKGFLKEEDLTEKKPWWWHLR
notes: cystathionine beta-synthase, Homo sapiens, C-terminally truncated by a stop at V414 (regulatory domain removed); not shown: 6xHis, C-terminal, kept
stoichiometry N [6]: 2

B3: Saccharomyces cerevisiae cystathionine beta-synthase, full-length (enzyme, UniProt P32582 1-507, looked up)
chain: T1 sequence (P32582 1-507)
notes: Cloned by NcoI and XhoI into pET-28a; also called yCBS; yCBS WT; source: E. coli Rosetta2 (DE3), purified (TALON, DEAE Sepharose); not shown: 6xHis, C-terminal, kept
stoichiometry N [6]: 4

B4: yCBS L345*, truncated Saccharomyces cerevisiae cystathionine beta-synthase lacking the regulatory domain (domain or fragment, UniProt P32582 1-344, looked up)
chain: MTKSEQQADSRHNVIDLVGNTPLIALKKLPKALGIKPQIYAKLELYNPGGSIKDRIAKSMVEEAEASGRIHPSRSTLIEPTSGNTGIGLALIGAIKGYRTIITLPEKMSNEKVSVLKALGAEIIRTPTAAAWDSPESHIGVAKKLEKEIPGAVILDQYNNMMNPEAHYFGTGREIQRQLEDLNLFDNLRAVVAGAGTGGTISGISKYLKEQNDKIQIVGADPFGSILAQPENLNKTDITDYKVEGIGYDFVPQVLDRKLIDVWYKTDDKPSFKYARQLISNEGVLVGGSSGSAFTAVVKYCEDHPELTEDDVIVAIFPDSIRSYLTKFVDDEWLKKNNLWDDDV
notes: cystathionine beta-synthase, Saccharomyces cerevisiae, C-terminally truncated at L345 (pET28-C-yCBS L345*); Cloned by NcoI and XhoI into pET-28a; source: E. coli Rosetta2 (DE3), purified (TALON, DEAE Sepharose); not shown: 6xHis, C-terminal, kept
stoichiometry N [6]: 2

B5: Drosophila melanogaster cystathionine beta-synthase, full-length (enzyme, UniProt Q9VRD9 1-522, looked up)
chain: T3 sequence (Q9VRD9 1-522)
notes: Cloned by NcoI and HindIII into pET-28a; also called dCBS; source: E. coli Rosetta2 (DE3), purified (TALON, DEAE Sepharose); not shown: 6xHis, C-terminal, kept
stoichiometry N [6]: 2
